Measured values published in article PMC7180638, “Synthesis of Pyrrolidine Monocyclic Analogues of Pochonicine and Its Stereoisomers: Pursuit of Simplified Structures and Potent β-N-Acetylhexosaminidase Inhibition” (Molecules, 2020).
Structures can show the parent of a compound that is named as a salt. Where two headings read alike, the source gives them in different places.

How the values were obtained:
Assay type in all cases: biochemical
[1] = target: β-N-Acetylhexosaminidase (HL60); assay: β-N-Acetylhexosaminidase (HL60) inhibition; conditions: for IC50: β-N-Acetylhexosaminidase (β-GlcNAcase); for Inhibition % at 1000 μM: β-N-Acetylhexosaminidase
Procedure: (§1) With rat intestinal maltase as an exception, other enzymes were purchased from Sigma-Aldrich Chemical Co. (St. Louis, MO, USA). Brush border membranes prepared from rat small intestine according to the method of Kessler et al. were assayed at pH 6.8 for rat intestinal maltase using maltose. The released D-glucose was determined colorimetrically using the Glucose CII-test Wako (Wako Pure Chemical Ind.; Osaka, Japan). Other glycosidase activities were determined using an appropriate p-nitrophenyl glycoside as substrate in a buffer solution at the optimal pH value of each enzyme. The reaction was stopped by adding 400 mM Na2CO3. The released p-nitrophenol was measured spectrometrically at 400 nm.

[2] = target: α-L-Rhamnosidase (P. decumbens); assay: α-L-Rhamnosidase (P. decumbens) inhibition
Procedure: as §1

[3] = target: T1, α-L-Fucosidase (Bovine kidney) (Bos taurus, UniProt Q2KIM0); assay: α-L-Fucosidase (bovine kidney) inhibition
T1 construct: purchased Sigma-Aldrich Chemical Co; host or cells: bovine kidney
T1 sequence (Q2KIM0 23-468): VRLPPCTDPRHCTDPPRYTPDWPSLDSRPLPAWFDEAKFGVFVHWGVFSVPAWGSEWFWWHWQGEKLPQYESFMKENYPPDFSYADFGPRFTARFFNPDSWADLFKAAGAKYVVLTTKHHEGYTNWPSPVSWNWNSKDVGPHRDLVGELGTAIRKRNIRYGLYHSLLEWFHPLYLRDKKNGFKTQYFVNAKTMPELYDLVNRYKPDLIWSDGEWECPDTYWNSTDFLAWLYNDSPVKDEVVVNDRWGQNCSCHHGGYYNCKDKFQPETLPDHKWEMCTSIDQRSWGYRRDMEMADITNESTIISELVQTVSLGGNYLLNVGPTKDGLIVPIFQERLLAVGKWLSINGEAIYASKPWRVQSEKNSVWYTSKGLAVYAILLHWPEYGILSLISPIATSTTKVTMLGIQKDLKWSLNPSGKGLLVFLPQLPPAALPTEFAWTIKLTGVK
Procedure: as §1

α-Glucosidase (Yeast) = α-Glucosidase (Yeast) (Saccharomyces cerevisiae, UniProt P53341); assay: α-Glucosidase (yeast) inhibition
Chain of α-Glucosidase (Yeast) (P53341 whole entry): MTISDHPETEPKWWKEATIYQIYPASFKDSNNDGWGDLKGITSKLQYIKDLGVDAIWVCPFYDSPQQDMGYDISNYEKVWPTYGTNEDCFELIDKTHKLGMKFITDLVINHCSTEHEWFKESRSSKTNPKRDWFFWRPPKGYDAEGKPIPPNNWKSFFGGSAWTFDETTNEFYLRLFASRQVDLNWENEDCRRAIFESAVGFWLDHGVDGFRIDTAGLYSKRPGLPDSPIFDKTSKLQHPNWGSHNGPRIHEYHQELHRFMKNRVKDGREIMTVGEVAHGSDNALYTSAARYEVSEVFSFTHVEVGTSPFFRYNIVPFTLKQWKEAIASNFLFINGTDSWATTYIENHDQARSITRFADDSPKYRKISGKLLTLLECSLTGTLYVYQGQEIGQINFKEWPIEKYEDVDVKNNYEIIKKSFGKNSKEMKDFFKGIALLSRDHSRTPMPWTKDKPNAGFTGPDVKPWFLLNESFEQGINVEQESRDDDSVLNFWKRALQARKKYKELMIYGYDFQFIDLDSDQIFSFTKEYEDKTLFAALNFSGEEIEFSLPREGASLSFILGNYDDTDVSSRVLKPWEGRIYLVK
Procedure: as §1

[4] = target: T2, α,α-Trehalase (Porcine kidney) (Sus scrofa, UniProt I3LIR5); assay: α,α-Trehalase (porcine kidney) inhibition
T2 construct: purchased Sigma-Aldrich Chemical Co; host or cells: porcine kidney
T2 sequence (I3LIR5 24-583): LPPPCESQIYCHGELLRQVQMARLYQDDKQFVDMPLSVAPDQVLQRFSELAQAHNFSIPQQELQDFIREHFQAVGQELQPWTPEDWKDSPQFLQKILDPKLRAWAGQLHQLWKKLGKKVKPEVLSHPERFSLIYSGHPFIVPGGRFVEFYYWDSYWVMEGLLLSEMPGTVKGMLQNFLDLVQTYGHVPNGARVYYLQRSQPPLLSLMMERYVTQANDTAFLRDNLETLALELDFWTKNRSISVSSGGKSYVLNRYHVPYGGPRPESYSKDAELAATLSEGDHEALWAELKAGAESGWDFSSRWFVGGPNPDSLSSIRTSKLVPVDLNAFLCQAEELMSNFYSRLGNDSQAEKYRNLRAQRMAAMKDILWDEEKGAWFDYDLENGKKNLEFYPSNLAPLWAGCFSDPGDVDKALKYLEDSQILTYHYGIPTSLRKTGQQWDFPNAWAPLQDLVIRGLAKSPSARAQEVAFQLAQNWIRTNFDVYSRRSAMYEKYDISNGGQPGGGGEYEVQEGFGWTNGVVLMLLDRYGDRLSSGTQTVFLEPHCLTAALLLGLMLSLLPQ
Procedure: as §1

[5] = target: T3, α-Mannosidase (Jack bean) (Canavalia ensiformis, UniProt C0HJB3); assay: α-Mannosidase (Jack bean) inhibition
T3 construct: purchased Sigma-Aldrich Chemical Co
T3 sequence (C0HJB3 1-981): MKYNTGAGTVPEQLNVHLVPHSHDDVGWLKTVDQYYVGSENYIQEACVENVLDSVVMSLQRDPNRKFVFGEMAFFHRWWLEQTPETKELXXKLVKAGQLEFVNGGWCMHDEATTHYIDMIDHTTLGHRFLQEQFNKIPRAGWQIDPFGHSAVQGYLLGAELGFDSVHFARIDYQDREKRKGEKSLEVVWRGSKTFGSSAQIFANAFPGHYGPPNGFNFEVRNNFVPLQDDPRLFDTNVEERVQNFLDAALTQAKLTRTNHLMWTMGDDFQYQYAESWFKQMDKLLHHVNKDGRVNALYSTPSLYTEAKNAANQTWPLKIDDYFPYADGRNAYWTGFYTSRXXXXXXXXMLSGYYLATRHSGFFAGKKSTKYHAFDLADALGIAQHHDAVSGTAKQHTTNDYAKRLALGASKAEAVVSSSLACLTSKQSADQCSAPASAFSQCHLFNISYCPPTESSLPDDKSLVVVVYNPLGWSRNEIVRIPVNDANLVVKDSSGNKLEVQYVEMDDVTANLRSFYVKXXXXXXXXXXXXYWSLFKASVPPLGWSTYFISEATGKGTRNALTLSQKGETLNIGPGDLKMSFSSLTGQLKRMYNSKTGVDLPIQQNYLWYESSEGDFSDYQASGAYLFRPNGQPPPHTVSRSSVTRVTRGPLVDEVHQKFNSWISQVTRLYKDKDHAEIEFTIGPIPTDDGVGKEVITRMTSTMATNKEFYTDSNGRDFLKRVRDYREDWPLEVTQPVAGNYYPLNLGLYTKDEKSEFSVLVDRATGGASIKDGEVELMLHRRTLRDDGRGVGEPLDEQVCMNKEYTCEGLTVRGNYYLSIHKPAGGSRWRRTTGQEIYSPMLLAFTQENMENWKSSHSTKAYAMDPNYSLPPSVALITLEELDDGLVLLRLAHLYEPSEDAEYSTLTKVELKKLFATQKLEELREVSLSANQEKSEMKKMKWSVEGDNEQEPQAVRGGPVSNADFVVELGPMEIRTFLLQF
Procedure: as §1

[6] = target: T4, β-Glucuronidase (E. coli) (Escherichia coli, UniProt P05804); assay: β-Glucuronidase (E. coli) inhibition
T4 construct: purchased Sigma-Aldrich Chemical Co
T4 sequence (P05804 whole entry): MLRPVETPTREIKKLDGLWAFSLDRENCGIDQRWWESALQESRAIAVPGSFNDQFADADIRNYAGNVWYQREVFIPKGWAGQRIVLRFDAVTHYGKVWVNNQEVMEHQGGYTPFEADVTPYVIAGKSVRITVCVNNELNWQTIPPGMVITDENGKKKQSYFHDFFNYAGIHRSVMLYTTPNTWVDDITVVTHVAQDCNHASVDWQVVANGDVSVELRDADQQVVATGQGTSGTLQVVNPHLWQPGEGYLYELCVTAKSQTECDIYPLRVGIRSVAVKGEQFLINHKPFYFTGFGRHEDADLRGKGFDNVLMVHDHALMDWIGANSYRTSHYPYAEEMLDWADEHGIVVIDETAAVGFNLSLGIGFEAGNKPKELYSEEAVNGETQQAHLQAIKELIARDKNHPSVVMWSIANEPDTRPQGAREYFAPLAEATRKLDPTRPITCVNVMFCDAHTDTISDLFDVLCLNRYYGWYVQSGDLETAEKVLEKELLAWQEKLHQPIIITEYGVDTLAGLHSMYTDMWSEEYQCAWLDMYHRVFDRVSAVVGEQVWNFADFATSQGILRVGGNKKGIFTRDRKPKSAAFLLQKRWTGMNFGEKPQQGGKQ
Procedure: as §1

[7] = target: β-N-Acetylgalactosaminidase (HL60); assay: β-N-Acetylgalactosaminidase (HL60) inhibition
Procedure: as §1

[8] = 1000 μM, read-out: Inhibition % at 1000 μM
[9] = read-out: Inhibition % at 1000 μM
[10] = α-Glucosidase, Yeast, read-out: IC50

SMILES: CC(=O)NC[C@H]1N[C@@H](CO)[C@H](O)[C@@H]1O [G-10, 1-N-acetylamino-2,5-imino-1,2,5-trideoxy-D-allitol hydrochloride]
- IC50 [1]: NI (No Inhibition (less than 50% at 1000 μM))
- Inhibition % at 1000 μM [1]: 18.8%
- IC50 [2]: NI (No Inhibition (less than 50% at 1000 μM))
- Inhibition % at 1000 μM [2]: 9.5%
- inhibition at 1000 µM [3, 8]: 11.5%
- inhibition at 1000 µM ([3]; read-out: IC50): < 50%
- inhibition at 1000 µM (α-Glucosidase (Yeast); [9]): 0%
- inhibition at 1000 µM (α-Glucosidase (Yeast); [10]): < 50%
- inhibition at 1000 µM [4, 8]: 5.6%
- inhibition at 1000 µM ([4]; read-out: IC50): < 50%
- inhibition at 1000 µM [5, 8]: 4%
- inhibition at 1000 µM ([5]; read-out: IC50): < 50%
- inhibition at 1000 µM [6, 8]: 0%
- inhibition at 1000 µM ([6]; read-out: IC50): < 50%
- IC50 [7]: NI (No Inhibition (less than 50% at 1000 μM))
- Inhibition % at 1000 μM [7]: 15.9%

SMILES: CC(=O)NC[C@@H]1N[C@H](CO)[C@@H](O)[C@H]1O [H-10, 1-N-acetylamino-2,5-imino-1,2,5-trideoxy-L-allitol hydrochloride]
- IC50 [1]: NI (No Inhibition (less than 50% at 1000 μM))
- Inhibition % at 1000 μM [1]: 0.3%
- IC50 [2]: NI (No Inhibition (less than 50% at 1000 μM))
- Inhibition % at 1000 μM [2]: 7.7%
- inhibition at 1000 µM [3, 8]: 22.3%
- inhibition at 1000 µM ([3]; read-out: IC50): < 50%
- inhibition at 1000 µM (α-Glucosidase (Yeast); [9]): 0%
- inhibition at 1000 µM (α-Glucosidase (Yeast); [10]): < 50%
- inhibition at 1000 µM [4, 8]: 40.9%
- inhibition at 1000 µM ([4]; read-out: IC50): < 50%
- inhibition at 1000 µM [5, 8]: 9.5%
- inhibition at 1000 µM ([5]; read-out: IC50): < 50%
- inhibition at 1000 µM [6, 8]: 0%
- inhibition at 1000 µM ([6]; read-out: IC50): < 50%
- IC50 [7]: NI (No Inhibition (less than 50% at 1000 μM))
- Inhibition % at 1000 μM [7]: 5.3%
